How the values were obtained:
[1] = refractive index (other wavelength) (dimensionless); details: 94 kPa, Liquid, Wavelength=632.8 nm, minimum deviation method
[2] = refractive index (other wavelength) (dimensionless); xn = mol fraction of the nth substance listed; details: 94 kPa, Liquid, Wavelength=632.8 nm, minimum deviation method, x2 = 0

CC(C)O [propan-2-ol]
[1]
Details	refractive index
298.21 K	1.3736
300.17 K	1.3728
302.2 K	1.3719
304.24 K	1.371
306.22 K	1.3701
308.22 K	1.3693
310.24 K	1.3684
312.2 K	1.3675

CCCCCCCC[n+]1ccn(C)c1.F[P-](F)(F)(F)(F)F [1-octyl-3-methylimidazolium hexafluorophosphate]
[1]
Details	refractive index
298.19 K	1.4215
300.2 K	1.421
302.19 K	1.4204
304.2 K	1.4199
306.22 K	1.4193
308.24 K	1.4188
310.25 K	1.4183
312.24 K	1.4178

CC(C)O [propan-2-ol] + CCCCCCCC[n+]1ccn(C)c1.F[P-](F)(F)(F)(F)F
[2]
Details	refractive index
298.21 K	1.3736
300.17 K	1.3728
302.2 K	1.3719
304.24 K	1.371
306.22 K	1.3701
308.22 K	1.3693
310.24 K	1.3684
312.2 K	1.3675

— the NIST ThermoML archive (doi:10.1016/j.jct.2016.10.047)
